Laboratory results: ChEMBL document CHEMBL1201862, “PubChem BioAssay data set” (2004)
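Each compound was tested at five concentrations against cells in 96-well plates for 48 hours. GI50 = concentration required for 50% inhibition of growth.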 Active and inactive are the calls of the source. No stated cut-off is given here; in the data, active = GI50 up to about 1.1 µM and inactive = higher.

What was measured:
Experiment in all cases: DTP human tumour cell line panel, 48 h
HT-29 = test system: HT-29
NCI/ADR-RES = test system: NCI/ADR-RES
M19-MEL = test system: M19-MEL
DLD-1 = test system: DLD-1
OVCAR-3 = test system: OVCAR-3
DMS-114 = test system: DMS-114
Malme-3M = test system: Malme-3M
SK-MEL-2 = test system: SK-MEL-2
SF-268 = test system: SF-268
OVCAR-8 = test system: OVCAR-8
COLO 205 = test system: COLO 205
HOP-18 = test system: HOP-18
UACC-62 = test system: UACC-62
RPMI-8226 = test system: RPMI-8226
HOP-62 = test system: HOP-62
UO-31 = test system: UO-31
SNB-75 = test system: SNB-75
SK-OV-3 = test system: SK-OV-3
MCF7 = test system: MCF7
DMS-273 = test system: DMS-273
HCT-116 = test system: HCT-116
SNB-19 = test system: SNB-19
SN12C = test system: SN12C
HOP-92 = test system: HOP-92
LOX IMVI = test system: LOX IMVI
HCC 2998 = test system: HCC 2998
SK-MEL-5 = test system: SK-MEL-5
NCI-H226 = test system: NCI-H226
KM-20L2 = test system: KM-20L2
NCI-H522 = test system: NCI-H522
NCI-H23 = test system: NCI-H23
XF498 = test system: XF498
SK-MEL-28 = test system: SK-MEL-28
CCRF-CEM = test system: CCRF-CEM
UACC-257 = test system: UACC-257
NCI-H460 = test system: NCI-H460
RXF 393 = test system: RXF 393
A498 = test system: A498
KM12 = test system: KM12
SNB-78 = test system: SNB-78
MOLT-4 = test system: MOLT-4
SF-539 = test system: SF-539
A549 = test system: A549
IGROV-1 = test system: IGROV-1
OVCAR-5 = test system: OVCAR-5
OVCAR-4 = test system: OVCAR-4
HCT-15 = test system: HCT-15
SF-295 = test system: SF-295
K562 = test system: K562
HL-60 = test system: HL-60
SW-620 = test system: SW-620
U-251 = test system: U-251
EKVX = test system: EKVX
M14 = test system: M14
786-0 = test system: 786-0
CAKI-1 = test system: CAKI-1
LXFL 529 = test system: LXFL 529
ACHN = test system: ACHN
TK-10 = test system: TK-10

With `COc1cc(-c2ccc(/N=N/c3ccc4c(S(=O)(=O)O)cc(S(=O)(=O)O)c(N)c4c3O)c(OC)c2)ccc1/N=N/c1ccc2c(S(=O)(=O)O)cc(S(=O)(=O)O)c(N)c2c1O` the GI50 (HT-29) was > 100 µM (inactive), the GI50 (NCI/ADR-RES) was > 100 µM (inactive) and the GI50 (M19-MEL) was > 100 µM (inactive). The GI50 (DLD-1) was > 100 µM (inactive), the GI50 (OVCAR-3) was > 100 µM (inactive) and the GI50 (DMS-114) was > 100 µM (inactive). For the same compound, the GI50 (Malme-3M) was > 100 µM (inactive), the GI50 (SK-MEL-2) was > 100 µM (inactive) and the GI50 (SF-268) was > 100 µM (inactive). The GI50 (OVCAR-8) was > 100 µM (inactive), the GI50 (COLO 205) was > 100 µM (inactive) and the GI50 (HOP-18) was > 44.3 µM (inactive). For the same compound, the GI50 (UACC-62) was > 100 µM (inactive), the GI50 (RPMI-8226) was > 100 µM (inactive) and the GI50 (HOP-62) was > 100 µM (inactive). The GI50 (UO-31) was > 100 µM (inactive), the GI50 (SNB-75) was > 100 µM (inactive) and the GI50 (SK-OV-3) was > 100 µM (inactive). The GI50 (MCF7) was > 100 µM (inactive), the GI50 (DMS-273) was > 100 µM (inactive) and the GI50 (HCT-116) was > 100 µM (inactive). The GI50 (SNB-19) was > 100 µM (inactive), the GI50 (SN12C) was > 100 µM (inactive) and the GI50 (HOP-92) was > 100 µM (inactive). For the same compound, the GI50 (LOX IMVI) was > 100 µM (inactive), the GI50 (HCC 2998) was > 100 µM (inactive) and the GI50 (SK-MEL-5) was > 100 µM (inactive). The GI50 (NCI-H226) was > 87.5 µM (inactive), the GI50 (KM-20L2) was > 100 µM (inactive) and the GI50 (NCI-H522) was > 100 µM (inactive). The GI50 (NCI-H23) was > 100 µM (inactive), the GI50 (XF498) was 36.1 µM (inactive) and the GI50 (SK-MEL-28) was > 100 µM (inactive). The GI50 (CCRF-CEM) was > 100 µM (inactive), the GI50 (UACC-257) was > 100 µM (inactive) and the GI50 (NCI-H460) was > 100 µM (inactive). The GI50 (RXF 393) was > 100 µM (inactive), the GI50 (A498) was > 100 µM (inactive) and the GI50 (KM12) was > 100 µM (inactive). For the same compound, the GI50 (SNB-78) was > 100 µM (inactive), the GI50 (MOLT-4) was > 100 µM (inactive) and the GI50 (SF-539) was > 100 µM (inactive). The GI50 (A549) was > 100 µM (inactive), the GI50 (IGROV-1) was > 100 µM (inactive) and the GI50 (OVCAR-5) was > 91.2 µM (inactive). The GI50 (OVCAR-4) was > 100 µM (inactive), the GI50 (HCT-15) was greater than 100 µM and the GI50 (SF-295) was > 100 µM (inactive). For the same compound, the GI50 (K562) was > 100 µM (inactive), the GI50 (HL-60) was > 41.6 µM (inactive) and the GI50 (SW-620) was > 100 µM (inactive). For the same compound, the GI50 (U-251) was > 100 µM (inactive) and the GI50 (EKVX) was > 100 µM (inactive).

With `Cc1ccc(NC(=O)C(=O)C(C(=O)c2ccc3ccccc3c2)C2OC(=O)c3ccccc32)cc1C` (stereo not given) the GI50 (HT-29) was 33 µM (inactive), the GI50 (M19-MEL) was 6.34 µM (inactive) and the GI50 (DLD-1) was 17.7 µM (inactive). For the same compound, the GI50 (OVCAR-3) was 10.9 µM (inactive), the GI50 (DMS-114) was 9.35 µM (inactive) and the GI50 (Malme-3M) was 12.7 µM (inactive). The GI50 (M14) was 15.6 µM (inactive), the GI50 (SK-MEL-2) was 15.5 µM (inactive) and the GI50 (SF-268) was 7.41 µM (inactive). The GI50 (786-0) was 10 µM (inactive), the GI50 (OVCAR-8) was 12.8 µM (inactive) and the GI50 (COLO 205) was 16.6 µM (inactive). The GI50 (HOP-18) was 0.743 µM (active), the GI50 (UACC-62) was 12.4 µM (inactive) and the GI50 (RPMI-8226) was 4.7 µM (inactive). The GI50 (HOP-62) was 14.7 µM (inactive), the GI50 (UO-31) was 11.9 µM (inactive) and the GI50 (SNB-75) was 2.98 µM (inactive). For the same compound, the GI50 (SK-OV-3) was 26.9 µM (inactive), the GI50 (DMS-273) was 5.87 µM (inactive) and the GI50 (HCT-116) was 11.8 µM (inactive). For the same compound, the GI50 (SNB-19) was 5.31 µM (inactive), the GI50 (SN12C) was 18.9 µM (inactive) and the GI50 (HOP-92) was 14 µM (inactive). For the same compound, the GI50 (LOX IMVI) was 14.4 µM (inactive), the GI50 (HCC 2998) was 2.77 µM (inactive) and the GI50 (SK-MEL-5) was 15.2 µM (inactive). The GI50 (NCI-H226) was 3.14 µM (inactive), the GI50 (KM-20L2) was 35.2 µM (inactive) and the GI50 (NCI-H522) was 3.03 µM (inactive). For the same compound, the GI50 (NCI-H23) was 4.79 µM (inactive), the GI50 (XF498) was 3.29 µM (inactive) and the GI50 (CAKI-1) was 8.57 µM (inactive). For the same compound, the GI50 (SK-MEL-28) was 10.3 µM (inactive), the GI50 (CCRF-CEM) was 5.2 µM (inactive) and the GI50 (UACC-257) was 10 µM (inactive). For the same compound, the GI50 (NCI-H460) was 5.74 µM (inactive), the GI50 (A498) was 10.4 µM (inactive) and the GI50 (KM12) was 19.5 µM (inactive). The GI50 (LXFL 529) was 8.36 µM (inactive), the GI50 (MOLT-4) was 3.3 µM (inactive) and the GI50 (SF-539) was 3.02 µM (inactive). For the same compound, the GI50 (A549) was 16.5 µM (inactive), the GI50 (IGROV-1) was 18.7 µM (inactive) and the GI50 (OVCAR-5) was 23.9 µM (inactive). The GI50 (OVCAR-4) was 13.1 µM (inactive), the GI50 (HCT-15) was 5.02 µM and the GI50 (ACHN) was 32 µM (inactive). For the same compound, the GI50 (K562) was 13.8 µM (inactive), the GI50 (HL-60) was 8.87 µM (inactive) and the GI50 (SW-620) was 14.7 µM (inactive). For the same compound, the GI50 (TK-10) was 34.8 µM (inactive), the GI50 (U-251) was 3.92 µM (inactive) and the GI50 (EKVX) was 63.5 µM (inactive).

For `COc1cc(/C=C(/C#N)C(N)=O)ccc1O`, the GI50 (HT-29) was > 100 µM (inactive), the GI50 (NCI/ADR-RES) was > 100 µM (inactive) and the GI50 (M19-MEL) was > 100 µM (inactive). The GI50 (DLD-1) was > 100 µM (inactive), the GI50 (OVCAR-3) was > 100 µM (inactive) and the GI50 (DMS-114) was > 100 µM (inactive). For the same compound, the GI50 (Malme-3M) was 53.6 µM (inactive), the GI50 (SK-MEL-2) was > 70.8 µM (inactive) and the GI50 (SF-268) was > 100 µM (inactive). The GI50 (OVCAR-8) was > 100 µM (inactive), the GI50 (COLO 205) was > 100 µM (inactive) and the GI50 (HOP-18) was > 40.7 µM (inactive). The GI50 (UACC-62) was > 100 µM (inactive), the GI50 (RPMI-8226) was > 100 µM (inactive) and the GI50 (HOP-62) was > 100 µM (inactive). The GI50 (UO-31) was > 41.5 µM (inactive), the GI50 (SNB-75) was > 50.1 µM (inactive) and the GI50 (SK-OV-3) was > 100 µM (inactive). For the same compound, the GI50 (MCF7) was > 100 µM (inactive), the GI50 (DMS-273) was > 100 µM (inactive) and the GI50 (HCT-116) was > 100 µM (inactive). For the same compound, the GI50 (SNB-19) was > 100 µM (inactive), the GI50 (SN12C) was > 100 µM (inactive) and the GI50 (HOP-92) was > 56.8 µM (inactive). For the same compound, the GI50 (LOX IMVI) was > 100 µM (inactive), the GI50 (HCC 2998) was > 60.5 µM (inactive) and the GI50 (SK-MEL-5) was > 22.2 µM (inactive). For the same compound, the GI50 (NCI-H226) was > 88.9 µM (inactive), the GI50 (KM-20L2) was > 100 µM (inactive) and the GI50 (NCI-H522) was > 100 µM (inactive). The GI50 (NCI-H23) was > 100 µM (inactive), the GI50 (XF498) was > 100 µM (inactive) and the GI50 (CAKI-1) was > 100 µM (inactive). For the same compound, the GI50 (SK-MEL-28) was > 100 µM (inactive), the GI50 (CCRF-CEM) was > 100 µM (inactive) and the GI50 (UACC-257) was > 100 µM (inactive). The GI50 (NCI-H460) was > 100 µM (inactive), the GI50 (A498) was > 63.2 µM (inactive) and the GI50 (KM12) was > 100 µM (inactive). For the same compound, the GI50 (SNB-78) was > 100 µM (inactive), the GI50 (MOLT-4) was > 100 µM (inactive) and the GI50 (SF-539) was > 100 µM (inactive). The GI50 (A549) was > 100 µM (inactive), the GI50 (IGROV-1) was > 100 µM (inactive) and the GI50 (OVCAR-5) was > 100 µM (inactive). The GI50 (OVCAR-4) was > 100 µM (inactive), the GI50 (HCT-15) was greater than 100 µM and the GI50 (SF-295) was > 100 µM (inactive). The GI50 (K562) was > 100 µM (inactive), the GI50 (HL-60) was > 100 µM (inactive) and the GI50 (SW-620) was > 100 µM (inactive). The GI50 (U-251) was > 100 µM (inactive) and the GI50 (EKVX) was > 100 µM (inactive).
